# Values joined by “and” are separate entries in the source; they are usually repeats but may differ in a detail not shown here. Equal values may be shown once. Read-outs that look alike come from different tables or passages of the source.
# Legend:
# [1] = target: T1, catalytic domain of human Bub1 (amino acids 704-1085) (Homo sapiens, UniProt O43683); assay: Bub1 kinase assay (TR-FRET); type: biochemical; details: 10 μM ATP, avg, read-out: Bub1 avg (IC50 [mol/l])
# T1 construct: catalytic domain of human Bub1 (amino acids 704-1085); His6 (N); made in house; host or cells: insect cells (Hi5)
# In short: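 Readout is the 665/620 nm TR-FRET ratio from anti-phosphoserine antibody, Eu-labelled anti-mouse IgG and streptavidin-XL665, scaled between no-enzyme and uninhibited controls. Reaction: 1 μM biotinylated peptide, 10 μM ATP, 60 min, 22 °C, after 15 min compound preincubation with His6-Bub1 (704-1085, insect-expressed, ~200 ng/ml).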
# [2] = tested on: HeLa; assay: Proliferation assay (crystal violet), HeLa; type: cell-based; details: HeLa cells, 4 days incubation, crystal violet staining, read-out: IC50 inhibition of proliferation, HeLa
# In short: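 Crystal violet proliferation readout, 4-day compound incubation, 0.001–10 μM, final DMSO 0.5%. Zero-point plate stained at time of dosing set as 0%, untreated control as 100%; IC50 via 4-parameter fit.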
# T1 sequence (O43683 704-1085): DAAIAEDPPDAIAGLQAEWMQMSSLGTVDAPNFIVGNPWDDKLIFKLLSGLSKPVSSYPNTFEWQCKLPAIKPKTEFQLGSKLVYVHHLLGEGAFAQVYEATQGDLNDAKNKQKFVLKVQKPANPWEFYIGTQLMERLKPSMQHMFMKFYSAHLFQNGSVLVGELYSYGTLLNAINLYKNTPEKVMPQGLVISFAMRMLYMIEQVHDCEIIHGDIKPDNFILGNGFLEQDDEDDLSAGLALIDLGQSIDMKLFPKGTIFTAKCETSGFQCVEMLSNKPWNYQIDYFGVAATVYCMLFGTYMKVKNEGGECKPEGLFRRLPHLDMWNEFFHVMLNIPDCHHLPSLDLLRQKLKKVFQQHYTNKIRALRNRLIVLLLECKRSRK
IC50 [1],"IC50 ([2]; Homo sapiens, HeLa, 96 h)",IC50 [2],Compound
> 20 µM,0.33 µM,–,"Cc1nsc(Nc2cnc(C(F)(F)F)cn2)c1C(=O)Nc1ccc(OC2CCN(CCF)CC2)c(F)c1 [Example 162, N-(3-fluoro-4-{[1-(2-fluoroethyl)piperidin-4-yl]oxy}phenyl)-3-methyl-5-{[5-(trifluoromethyl)pyrazin-2-yl]amino}-1,2-thiazole-4-carboxamide]"
> 20 µM,0.16 µM,–,"Cc1nsc(Nc2cnc(C(F)(F)F)cn2)c1C(=O)Nc1ccc(OC2CCN(CC(F)(F)F)CC2)c(F)c1 [Example 163, N-(3-fluoro-4-{[1-(2,2,2-trifluoroethyl)piperidin-4-yl]oxy}phenyl)-3-methyl-5-{[5-(trifluoromethyl)pyrazin-2-yl]amino}-1,2-thiazole-4-carboxamide]"
> 20 µM,0.16 µM,–,"Cc1nsc(Nc2cnc(C(F)(F)F)cn2)c1C(=O)Nc1ccc(OC2CCN(CC(F)F)CC2)c(F)c1 [Example 164, N-(4-{[1-(2,2-difluoroethyl)piperidin-4-yl]oxy}-3-fluorophenyl)-3-methyl-5-{[5-(trifluoromethyl)pyrazin-2-yl]amino}-1,2-thiazole-4-carboxamide]"
> 20 µM,3.2 µM,–,"Cc1nsc(Nc2cnc(C(F)(F)F)cn2)c1C(=O)Nc1ccc(C(=O)NC2CCN(CC(F)(F)F)CC2)cc1 [Example 165, 3-methyl-N-(4-{[1-(2,2,2-trifluoroethyl)piperidin-4-yl]carbamoyl}phenyl)-5-{[5-(trifluoromethyl)pyrazin-2-yl]amino}-1,2-thiazole-4-carboxamide]"
> 20 µM,0.83 µM,–,"Cc1nsc(Nc2cncc(C(F)(F)F)n2)c1C(=O)Nc1ccc(OCC2CCCN(C(=O)OC(C)(C)C)C2)nc1 (stereo not shown) [Example 166, tert-butyl 3-{[(5-{[(3-methyl-5-{[6-(trifluoromethyl)pyrazin-2-yl]amino}-1,2-thiazol-4-yl)carbonyl]amino}pyridin-2-yl)oxy]methyl}piperidine-1-carboxylate]"
> 20 µM,4.3 µM,–,"Cc1nsc(Nc2cncc(C(F)(F)F)n2)c1C(=O)Nc1ccc(C(=O)NC2CCN(CC(F)(F)F)CC2)cc1 [Example 167, 3-methyl-N-(4-{[1-(2,2,2-trifluoroethyl)piperidin-4-yl]carbamoyl}phenyl)-5-{[6-(trifluoromethyl)pyrazin-2-yl]amino}-1,2-thiazole-4-carboxamide]"
> 20 µM,0.91 µM,–,"Cc1nsc(Nc2cncc(C(F)(F)F)n2)c1C(=O)Nc1ccc(F)c(OC2CCN(C(=O)OC(C)(C)C)CC2)c1 [Example 168, tert-butyl 4-(2-fluoro-5-{[(3-methyl-5-{[6-(trifluoromethyl)pyrazin-2-yl]amino}-1,2-thiazol-4-yl)carbonyl]amino}phenoxy)piperidine-1-carboxylate]"
> 20 µM,> 10 µM,–,"Cc1nsc(Nc2cnc3ccccc3n2)c1C(=O)Nc1ccc(N2CCOCC2)nc1 [Example 169, 3-methyl-N-[6-(morpholin-4-yl)pyridin-3-yl]-5-(quinoxalin-2-ylamino)-1,2-thiazole-4-carboxamide]"
> 20 µM,> 10 µM,–,"Cc1nsc(Nc2ccc(C#N)cn2)c1C(=O)Nc1ccc(N[C@@H](C)C(=O)OC(C)(C)C)nc1 [Example 170, tert-butyl N-{5-[({5-[(5-cyanopyridin-2-yl)amino]-3-methyl-1,2-thiazol-4-yl}carbonyl)amino]pyridin-2-yl}alaninate]"
> 20 µM,6.2 µM,–,"Cc1nsc(Nc2ccc(C#N)cn2)c1C(=O)Nc1ccc(NC2CCCN(C(=O)OC(C)(C)C)C2)nc1 (stereo not shown) [Example 171, tert-butyt 3-({5-[({5-[(5-cyanopyridin-2-yl)amino]-3-methyl-1,2-thiazol-4-yl}carbonyl)amino]pyridin-2-yl}amino)piperidine-1-carboxylate]"
> 20 µM and 18 µM,> 10 µM,–,"Cc1nsc(Nc2cnc3ccccc3n2)c1C(=O)Nc1ccc(NC2CC2)nc1 [Example 172, N-[6-(cyclopropylamino)pyridin-3-yl]-3-methyl-5-(quinoxalin-2-ylamino)-1,2-thiazole-4-carboxamide]"
> 20 µM,> 10 µM,–,"COc1ccc(NC(=O)c2c(C)nsc2Nc2ccc(C#N)cn2)c(N2CCOCC2)n1 [Example 173, 5-[(5-cyanopyridin-2-yl)amino]-N-[6-methoxy-2-(morpholin-4-yl)pyridin-3-yl]-3-methyl-1,2-thiazole-4-carboxamide]"
≥ 20 µM,–,0.84 µM,"Cc1nsc(Nc2cnc(C(F)(F)F)cn2)c1C(=O)Nc1ccc(F)c(OCC2CCCN(CC(F)F)C2)c1 (stereo not shown) [Example 335, N-(3-{[1-(2,2-difluoroethyl)piperidin-3-yl]methoxy}-4-fluorophenyl)-3-methyl-5-{[5-(trifluoromethyl)pyrazin-2-yl]amino}-1,2-thiazole-4-carboxamide]"
≥ 20 µM,–,0.55 µM,"Cc1nsc(Nc2cnc(C(F)(F)F)cn2)c1C(=O)Nc1ccc(O[C@@H]2CCN(CC(F)(F)F)C2)nc1 [Example 421, 3-Methyl-N-(6-{[(3R)-1-(2,2,2-trifluoroethyl)pyrrolidin-3-yl]oxy}pyridin-3-yl)-5-{[5-(trifluoromethyl)pyrazin-2-yl]amino}-1,2-thiazole-4-carboxamide]"
≥ 20 µM,–,0.37 µM,"Cc1nsc(Nc2cnc(C(F)(F)F)cn2)c1C(=O)Nc1ccc(OC[C@@H]2CCCN(CCC(F)(F)F)C2)nc1 [Example 422, 3-Methyl-5-{[5-(trifluoromethyl)pyrazin-2-yl]amino}-N-(6-{[(3R)-1-(3,3,3-trifluoropropyl)piperidin-3-yl]methoxy}pyridin-3-yl)-1,2-thiazole-4-carboxamide]"

# More lines, now with the values behind:
Compound,IC50 [1],"IC50 ([2]; Homo sapiens, HeLa, 96 h)",IC50 [2]
"Cc1nsc(Nc2ccc(C#N)cn2)c1C(=O)Nc1cccc(S(C)(=O)=O)c1 [Example 150, 5-[(5-cyanopyridin-2-yl)amino]-3-methyl-N-[3-(methylsulfonyl)phenyl]-1,2-thiazole-4-carboxamide]",> 20 µM,2.8 µM,–
"Cc1nsc(Nc2cnc(C(F)(F)F)cn2)c1C(=O)Nc1ccc(F)c(C(N)=O)c1 [Example 151, N-(3-carbamoyl-4-fluorophenyl)-3-methyl-5-{[5-(trifluoromethyl)pyrazin-2-yl]amino}-1,2-thiazole-4-carboxamide]",4.3 µM,8.9 µM,–
"CC(=O)Nc1cc(NC(=O)c2c(C)nsc2Nc2ccc(C#N)cn2)ccc1F [Example 152, N-(3-acetamido-4-fluorophenyl)-5-[(5-cyanopyridin-2-yl)amino]-3-methyl-1,2-thiazole-4-carboxamide]",> 20 µM,> 10 µM,–
"Cc1nsc(Nc2cnc(C(F)(F)F)cn2)c1C(=O)Nc1ccc(C(=O)NCCN2CCCC(F)(F)C2)cc1 [Example 153, N-(4-{[2-(3,3-difluoropiperidin-1-yl)ethyl]carbamoyl}phenyl)-3-methyl-5-{[5-(trifluoromethyl)pyrazin-2-yl]amino}-1,2-thiazole-4-carboxamide]",14 µM,2.8 µM,–
"Cc1nsc(Nc2cnc(C(F)(F)F)cn2)c1C(=O)Nc1ccc(C(=O)N2CCN(CC(F)F)CC2)cc1 [Example 154, N-(4-{[4-(2,2-difluoroethyl)piperazin-1-yl]carbonyl}phenyl)-3-methyl-5-{[5-(trifluoromethyl)pyrazin-2-yl]amino}-1,2-thiazole-4-carboxamide]",> 20 µM,2.5 µM,–
"Cc1nsc(Nc2cncc(C(F)(F)F)n2)c1C(=O)Nc1ccc(C(=O)NCCN2CCCC(F)C2)cc1 (stereo not shown) [Example 155, N-(4-{[2-(3-fluoropiperidin-1-yl)ethyl]carbamoyl}phenyl)-3-methyl-5-{[6-(trifluoromethyl)pyrazin-2-yl]amino}-1,2-thiazole-4-carboxamide]",> 20 µM,9.9 µM,–
"Cc1nsc(Nc2cnc3ccccc3n2)c1C(=O)Nc1ccc(C(=O)NCCN2CCCC(F)(F)C2)cc1 [Example 156, N-(4-{[2-(3,3-difluoropiperidin-1-yl)ethyl]carbamoyl}phenyl)-3-methyl-5-(quinoxalin-2-ylamino)-1,2-thiazole-4-carboxamide]",19 µM and > 20 µM,> 10 µM,–
"Cc1nsc(Nc2cnc3ccccc3n2)c1C(=O)Nc1ccc(C(=O)N2CCN(CC(F)F)CC2)cc1 [Example 157, N-(4-{[4-(2,2-difluoroethyl)piperazin-1-yl]carbonyl}phenyl)-3-methyl-5-(quinoxalin-2-ylamino)-1,2-thiazole-4-carboxamide]",> 20 µM,> 10 µM,–
"Cc1nsc(Nc2cnc3ccccc3n2)c1C(=O)Nc1ccc(C(=O)NC2CN(C(=O)OC(C)(C)C)CC(F)(F)C2)cc1 (stereo not shown) [Example 158, tert-butyl 3,3-difluoro-5-{[4-({[3-methyl-5-(quinoxalin-2-ylamino)-1,2-thiazol-4-yl]carbonyl}amino)benzoyl]amino} piperidine-1-carboxylate]",> 20 µM,3.2 µM,–
Cc1nsc(Nc2cnc3ccccc3n2)c1C(=O)Nc1ccc(C(=O)N2CCCN(CC(F)(F)F)CC2)cc1 [Example 159],> 20 µM,2.3 µM,–
"Cc1nsc(Nc2cnc(C(F)(F)F)cn2)c1C(=O)Nc1ccc(OC2CCN(C(C)C)CC2)nc1 [Example 160, N-{6-[(1-isopropylpiperidin-4-yl)oxy]pyridin-3-yl}-3-methyl-5-{[5-(trifluoromethyl)pyrazin-2-yl]amino}-1,2-thiazole-4-carboxamide]",> 20 µM,3.3 µM,–
